In publication PMC7145527 (2019) one finds binding, kon and KD data, which are given here for 19 compounds.

The subject of test [1] is wt Chili RNA aptamer (RNA, aptamer) GGCUAGCUGGAGGGGCGCCAGUUCGCUGGUGGUUGGGUGCGGUCGGCUAGCC
As to the kind of experiment: fluorescence activation.

Test [2] has the same test system. The experiment in a line: fluorescence activation kinetics. Conditions: K+ 125 mM, Mg2+ 5 mM; 40 mM HEPES pH 7.5, 25 °C; 0.025 µM RNA.
For test [3] the test system is unchanged. As to the kind of experiment: fluorescence competition. Conditions: K+ 125 mM, Mg2+ 5 mM; 40 mM HEPES pH 7.5; competes with DMHBAI; up to 5 µM (tenfold excess).
The subject of test [4] is Chili G31A (RNA, aptamer) GGCUAGCUGGAGGGGCGCCAGUUCGCUGGUAGUUGGGUGCGGUCGGCUAGCC
The experiment in a line: fluorescence activation. Conditions: K+ 125 mM, Mg2+ 5 mM; HEPES pH 7.5; inferred from absent fluorescence; 0.5 µM RNA and dye.

Test [5] relates to Chili G36A (RNA, aptamer) GGCUAGCUGGAGGGGCGCCAGUUCGCUGGUGGUUGAGUGCGGUCGGCUAGCC
As to the kind of experiment: fluorescence activation. Conditions: K+ 125 mM, Mg2+ 5 mM, HEPES pH 7.5.

Test [6] relates to Chili C16U (RNA, aptamer) GGCUAGCUGGAGGGGUGCCAGUUCGCUGGUGGUUGGGUGCGGUCGGCUAGCC
The experiment in a line: fluorescence activation. Conditions: K+ 125 mM, Mg2+ 5 mM; HEPES pH 7.5; inferred from absent fluorescence; 0.5 µM RNA and dye.

Test [7] concerns wt Chili RNA aptamer (RNA, aptamer) GGCUAGCUGGAGGGGCGCCAGUUCGCUGGUGGUUGGGUGCGGUCGGCUAGCC
As to the kind of experiment: isothermal titration calorimetry. Conditions: K+ 125 mM, Mg2+ 5 mM; HEPES pH 7.5, 25 °C.

Test [8] concerns Chili G35A (RNA, aptamer) GGCUAGCUGGAGGGGCGCCAGUUCGCUGGUGGUUAGGUGCGGUCGGCUAGCC
The experiment in a line: fluorescence activation. The conditions noted are these: K+ 125 mM, Mg2+ 5 mM, HEPES pH 7.5.

Test [9] relates to Chili C16U/G31A (RNA, aptamer) GGCUAGCUGGAGGGGUGCCAGUUCGCUGGUAGUUGGGUGCGGUCGGCUAGCC
The experiment in a line: fluorescence activation. Conditions: K+ 125 mM, Mg2+ 5 mM; HEPES pH 7.5; inferred from absent fluorescence; 0.5 µM RNA and dye.

The subject of test [10] is wt Chili RNA aptamer (RNA, aptamer) GGCUAGCUGGAGGGGCGCCAGUUCGCUGGUGGUUGGGUGCGGUCGGCUAGCC
As to the kind of experiment: imino 1H NMR. Conditions: K+ 50 mM, Mg2+ 1 mM; 25 mM KPi pH 7.4; 20 µM RNA, 20 µM dye.

Test [11] shares this test system. The experiment in a line: fluorescence titration. The conditions noted are these: K+ 125 mM, Mg2+ 5 mM, HEPES pH 7.5, incubated at 4 °C 16 h.
For test [12], the system named is Chili C44U (RNA, aptamer) GGCUAGCUGGAGGGGCGCCAGUUCGCUGGUGGUUGGGUGCGGUUGGCUAGCC
The experiment in a line: fluorescence activation. The conditions noted are these: K+ 125 mM, Mg2+ 5 mM; HEPES pH 7.5; I540 122.6 versus wt 200.2.

For test [13], the system named is Chili C40U (RNA, aptamer) GGCUAGCUGGAGGGGCGCCAGUUCGCUGGUGGUUGGGUGUGGUCGGCUAGCC
The experiment in a line: fluorescence activation. Conditions: K+ 125 mM, Mg2+ 5 mM; HEPES pH 7.5; I540 156.1 versus wt 200.2.

The subject of test [14] is Chili U38C (RNA, aptamer) GGCUAGCUGGAGGGGCGCCAGUUCGCUGGUGGUUGGGCGCGGUCGGCUAGCC
As to the kind of experiment: fluorescence activation. The conditions noted are these: K+ 125 mM, Mg2+ 5 mM; HEPES pH 7.5; I540 129.3 versus wt 200.2.

Test [15] concerns Chili U34C (RNA, aptamer) GGCUAGCUGGAGGGGCGCCAGUUCGCUGGUGGUCGGGUGCGGUCGGCUAGCC
As to the kind of experiment: fluorescence activation. The conditions noted are these: K+ 125 mM, Mg2+ 5 mM; HEPES pH 7.5; I540 203.1 versus wt 200.2.

Setting [16] is: K+ 125 mM, Mg2+ 5 mM, 80 mM HEPES pH 7.5, 0.5 µM RNA, 0.5 µM dye.
[17] abbreviates: weaker fluorescence than parent Chili.

Turning to `CN1C(=Cc2cc[n+](C)c3ccccc23)Sc2ccccc21`, in test [1], the binding entry was “yes”.

Regarding `COc1cc(/C=C2\N=C(C=NO)N(c3ccc([N+](C)(C)C)cc3)C2=O)cc(OC)c1O`, in test [2], the kon worked out at 65000 L/mol/s.

`COc1ccc(N2C(=O)/C(=C/c3cc(OC)cc(OC)c3)N=C2C)cc1`: the binding entry in test [3] is recorded as “no”.

Regarding `COc1cc(/C=C2N=C(/C=C/c3c[nH]c4ccccc34)N(C)C\2=O)cc(OC)c1O`, in test [1] (setting [16]), the binding result is given as “yes”.

Consider `COc1cc(/C=C2\N=C(C)N(c3ccccc3)C2=O)cc(OC)c1O`, for which the binding entry in test [1] (setting [16]) is listed as “yes”.

For the compound `COc1cc(/C=C2\N=C(C)N(c3ccc([N+](C)(C)C)cc3)C2=O)cc(OC)c1O`, the binding entry in [4] was “no”; in test [5] (setting [17]), “yes”; in test [6], “no”; in test [8] (setting [17]), “yes”; in test [9] it was “no”. The compound also showed a KD in test [7] of 24.1 ± 5.6 nM. The compound also had a kon in [2] of 82000 L/mol/s.

For the compound `Cc1ccc2c(c1)sc(-c1ccc(N(C)C)cc1)[n+]2C`, the binding result in [1] is listed as “yes”.

As to `COc1cc(/C=C2N=C(/C=C/c3ccccc3)N(c3ccc([N+](C)(C)C)cc3)C\2=O)cc(OC)c1O`, in test [1] (setting [16]), the binding result was “yes”.

As to `COc1cc(/C=C2N=C(/C=C/c3c[nH]c4ccccc34)N(c3ccc(C)cc3)C\2=O)cc(OC)c1O`, the binding entry in test [1] (setting [16]) was “yes”.

As for `COc1cc(/C=C2\N=C(C)N(C)C2=O)cc(Br)c1O`, the binding entry in [1] (setting [16]) is reported as “yes”.

As for `CCN1C(=O)/C(=C/c2cc(OC)c(O)c(OC)c2)N=C1C`, in [1] (setting [16]), the binding entry is recorded as “yes”.

Turning to `COc1cc(/C=C2N=C(/C=C/c3ccncc3)N(C)C\2=O)cc(OC)c1O`, the binding result in test [10] is given as “yes”.

As for `COc1cc(/C=C2\N=C(C)N(c3ccc(C)cc3)C2=O)cc(OC)c1O`, the KD in test [11] (Figure S6 legend instead prints 0.377±0.024 µM) came to 151 ± 21 nM.

Regarding `COc1cc(/C=C2N=C(/C=C/c3ccccc3)N(C)C\2=O)cc(OC)c1O`, the binding entry in [10] was “yes”.

For the compound `COc1cc(/C=C2\N=C(C)N(C)C2=O)cc(OC)c1O`, the binding result is on record as “no” in test [4]; “yes” in test [5] (I540 192.9 versus wt 200.2); “yes” in test [12]; “no” in test [6]; “yes” in test [13]; “yes” in [8] (I540 138.2 versus wt 200.2). The values for the binding entry in [9], in [14] and in test [15] were “no”, “yes” and “yes”, respectively. Moreover, in test [7], the KD is 371 ± 55 nM.

`COc1ccc(N2C(=O)/C(=C/c3cc(OC)c(O)c(OC)c3)N=C2C)cc1`: the KD in [11] (dye 0.1 µM) came to 65 ± 7 nM.

Take `COc1cc(/C=C2N=C(/C=C/c3c[nH]cn3)N(C)C\2=O)cc(OC)c1O`: the binding result in test [1] (setting [16]) is recorded as “yes”.

With `COc1cc(/C=C2\N=C(C)N([C@H]3CC[C@H](C)CC3)C2=O)cc(OC)c1O`, the binding entry in test [1] (setting [16]) is “yes”.

`COc1ccc(N2C(=O)/C(=C/c3ccc(O)c(OC)c3)N=C2C)cc1`: in test [1] (setting [16]), the binding entry is recorded as “yes”.

What is called kon is the rate constant with which the complex forms. As usually defined, the KD is the constant that tells how readily two partners part at equilibrium. Higher therefore signals lower affinity.
